Experimental data published in patent US20030170252A1, “Antibody compositions specific for p33QIK and p63Krs1 polypeptides and uses thereof” (priority 2000, published 2003).
Residues, ends and D or L forms follow the SMILES beside them. *: point of attachment. Cbz = O=C(OCc1ccccc1)*; CH2F = FC*

Tests used:
Type in all cases: cell-based, mouse
[1] = system: p33^QIK; test: In-gel kinase assay (MBP substrate) of p33^QIK activity in treated NIH3T3 cultures; conditions: for kinase activity of p33^QIK: quiescent NIH3T3 cultures (48 hr serum starvation) stimulated with reagent, 1-6 hr
Experimental: (§1) Mouse NIH3T3 fibroblast cultures were maintained in Dulbecco's modified Eagle's medium (DMEM)(BRL/GIBCO, Grand Island, N.Y.) supplemented with 5% calf serum, 50 units/ml penicillin, and 5 mcg/ml streptomycin, and cultivated at 37° C.
(§2) Mouse 10T1/2 fibroblast cultures were maintained in Basal medium Eagle (BRL/GIBCO, Grand Island, N.Y.) supplemented with 10% heat-inactivated fetal bovine serum, 50 U/ml penicillin, and 5 μg/ml streptomycin, and cultivated at 37° C. Cells synchronized in quiescent state were growth-arrested by serum starvation for 48 hr. Actinomycin D (ActD), cycloheximide (CHXM), 12-0-tetradecanoylphorbol 13-acetate (TPA), staurosporine (STSP) (Sigma Chemical, St. Louis, Mo.), sodium fluoride (NaF), sodium orthovanadate (Na3VO4) (Fisher Scientific, Pittsburgh, Pa.), and FR901228 (FR)(NCI, Frederick, Md.) were diluted in cultured medium before treatment of cultured cells. A broad range caspase inhibitor Z-Asp-[(2,6-dichlorobenzoyl)oxy]methane (Z-D-CH2-DCB) (Dolle et al., 1994; Mashima et al., 1995)(CALBIOCHEM, La Jolla, Calif.) was dissolved in dimethyl sulfoxide and diluted in cultured medium for treatment. Recombinant human Caspase-3 was purchased from Alexis Biochemicals (San Diego, Calif.). Protein phosphatase 1 (PP1) and Lambda protein phosphatase (λPPase) were purchased from NE BioLabs (Beverly, Mass.). Production of rabbit polyclonal antibody Ab-KQ to p63^Krsl and p33^QIK was made using peptide sequences of Krsl as antigens (Alpha Diagnostic International, San Antonio, Tex.). UV irradiation was carried out using a UV Crosslinker (Stratagene, La Jolla, Calif.).
(§3) Cells were lysed with 30 strokes of a tight-fitting Dounce homogenizer in lysis A buffer (10 mM KH2PO4, 1 mM EDTA, 5 mM EGTA, 10 mM MgCl2, 50 mM […], 1 mM Na3VO4, 2 mM dithiothreitol) (Wang et al., 1992). Cytoplasmic proteins (S20) were isolated from the supernatants after centrifugation of crude lysates at 20,000 ×g for 20 min. Protein concentration in S20 was measured by using the BCA assay (Pierce, Rockford, Ill.). Immunoprecipitation of p33^QIK was carried out by incubation of S20 with the specific antibody Ab-KQ at 0° C. for 1 hr. Immune complexes were adsorbed to Pansorbin (Staphylococcus aureus) (CALBIOCHEM, La Jolla, Calif.) at 0° C. for 30 min and washed with STE buffer (50 mM Tris-HCl, pH 7.0, 150 mM NaCl, 1 mM Na2 EDTA) supplemented with 0.1 mM DTT and 0.1% NP-40 and ST buffer supplemented with 1 mM DTT.
(§4) MBP (BRL/GIBCO, Grand Island, N.Y.) was used as a substrate in the assay and the in-gel kinase assay was performed as previously described (Wang et al., 1992). Briefly, 10% SDS-polyacrylamide gel (SDS-PAG) was copolymerized with 0.4 mg/ml MBP. Cellular proteins were resolved in the MBP-immobilized SDS-PAG, followed by rinsing the gel with 20% isopropanol in buffer B (100 mM Tris, pH 8, 5 mM β-mercaptoethanol). The gel was denatured in buffer B supplemented with 6 M guanidine-HCl and renatured with buffer B supplemented with 0.04% Tween 40 (Kameshita and Fujisawa, 1989). Kinase reaction was carried out by incubating the gel with kinase buffer (20 Mm Tris, pH 7.2, 10 mM MgCl2, 15 mM β-glycerolphosphate) supplemented with 50 μM γATP and 50 μCi of [γ-^32P]ATP at 22° C. for 30 min. The gel was washed with 1% sodium pyrophosphate in 5% trichloroacetic acid. Protein kinases which phosphorylated MBP in the gel were detected by autoradiography of the [γ^32P]-labeled MBP.

[2] = biological target: p63^Krsl; test: In-gel kinase assay (MBP substrate) of p63^Krsl activity in treated NIH3T3 cultures; conditions: quiescent NIH3T3 cultures stimulated with reagent
Experimental: as §1
Mouse 10T1/2 fibroblast cultures were maintained in Basal medium Eagle (BRL/GIBCO, Grand Island, N.Y.) supplemented with 10% heat-inactivated fetal bovine serum, 50 U/ml penicillin, and 5 μg/ml streptomycin, and cultivated at 37° C. Cells synchronized in quiescent state were growth-arrested by serum starvation for 48 hr. […]
Cells were lysed with 30 strokes of a tight-fitting Dounce homogenizer in lysis A buffer (10 mM KH2PO4, 1 mM EDTA, 5 mM EGTA, 10 mM MgCl2, 50 mM […], 1 mM Na3VO4, 2 mM dithiothreitol) (Wang et al., 1992). […] Protein concentration in S20 was measured by using the BCA assay (Pierce, Rockford, Ill.). […]
MBP (BRL/GIBCO, Grand Island, N.Y.) was used as a substrate in the assay and the in-gel kinase assay was performed as previously described (Wang et al., 1992). […] Protein kinases which phosphorylated MBP in the gel were detected by autoradiography of the [γ^32P]-labeled MBP.

[3] = biological target: p44/42^Erk; conditions: quiescent NIH3T3 cultures (48 hr serum starvation) stimulated with reagent, 1-6 hr
Experimental: as §1, §2, §3, §4

Compound | induction of p33^QIK activity ([1]; cultures preincubated with caspase inhibitor prior to serum starvation and osmotic stress) | kinase activity of p33^QIK [1] | kinase activity of p63^Krsl [2] | kinase activity of p44/42^Erk [3]
COC(=O)C[C@H](NC(=O)[C@H](C)NC(=O)[C@@H](NC(=O)OCc1ccccc1)C(C)C)C(=O)CF [Z-VAD-FMK] (Cbz-Val-Ala-Asp(OMe)-CH2F) | neither blocked induction of p33^QIK activity |  |  | 
C=C1[C@@H](O)[C@@H]2O[C@]3(CC[C@H](/C=C/[C@@H](C)[C@@H]4CC(C)=C[C@@]5(O[C@H](C[C@@](C)(O)C(=O)O)CC[C@H]5O)O4)O3)CC[C@H]2O[C@@H]1[C@@H](O)C[C@H](C)[C@H]1O[C@@]2(CCCCO2)CC[C@H]1C [okadaic acid] |  | did not result in deactivation of p33^QIK | activated p63^Krsl | 
CCCCCCCCCCCCCC(=O)O[C@@H]1[C@@H](C)[C@@]2(O)[C@@H](C=C(CO)C[C@]3(O)C(=O)C(C)=C[C@@H]23)[C@H]2C(C)(C)[C@]12OC(C)=O [phorbol ester, 12-0-tetradecanoylphorbol 13-acetate] |  | progressive decrease of p33^QIK activity |  | transient induction of p44/42^Erk activity
[F-].[Na+] [sodium fluoride] |  | resulted in deactivation of p33^QIK |  | induced p44/42^Erk activity
sodium orthovanadate [sodium vanadate] |  | accelerated deactivation of p33^QIK |  | profound and constant activation of p44/42^Erk
